The values below come from US20080188502A1, “New Compounds I” (AstraZeneca AB, priority 2006, published 2008).

Each structure is given as a SMILES string. Where a name gives a salt, the structure may show the parent alone.

T1 sequence (P49841 whole entry): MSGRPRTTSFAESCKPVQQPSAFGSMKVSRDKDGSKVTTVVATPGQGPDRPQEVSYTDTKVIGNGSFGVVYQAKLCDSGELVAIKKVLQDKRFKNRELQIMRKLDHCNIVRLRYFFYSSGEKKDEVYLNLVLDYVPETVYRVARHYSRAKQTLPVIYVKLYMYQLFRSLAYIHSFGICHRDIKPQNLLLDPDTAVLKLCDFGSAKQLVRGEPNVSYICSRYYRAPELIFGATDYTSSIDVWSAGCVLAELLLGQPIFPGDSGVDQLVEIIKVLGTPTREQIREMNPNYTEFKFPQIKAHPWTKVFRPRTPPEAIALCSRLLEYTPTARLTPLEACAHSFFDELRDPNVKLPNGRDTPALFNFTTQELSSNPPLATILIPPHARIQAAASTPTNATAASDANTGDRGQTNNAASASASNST

The test has as its target T1, recombinant human GSK3β (Homo sapiens, UniProt P49841).
T1 construct: purchased Dundee University, UK
The test is described as follows: GSK3β Scintillation Proximity Assay (ATP competition). Type of test: biochemical. The conditions noted are these: inhibition constants calculated with Km of ATP for GSK3β of 20 μM; 1 μM ATP, 1 μM biotinylated peptide substrate. Here is the method:
Determination of ATP Competition in Scintillation Proximity GSK3β Assay.
GSK3β Scintillation Proximity Assay.
The competition experiments were carried out in duplicate with 10 different concentrations of the inhibitors in clear-bottom microtiter plates (Wallac, Finland). A biotinylated peptide substrate, Biotin-Ala-Ala-Glu-Glu-Leu-Asp-Ser-Arg-Ala-Gly-Ser(PO3H2)-Pro-Gln-Leu (AstraZeneca, Lund), was added at a final concentration of 1 μM in an assay buffer containing 1 mU recombinant human GSK3β (Dundee University, UK), 12 mM morpholinepropanesulfonic acid (MOPS), pH 7.0, 0.3 mM EDTA, 0.01% β-mercaptoethanol, 0.004% Brij 35 (a […] detergent), 0.5% glycerol and 0.5 μg BSA/25 μl. The reaction was initiated by the addition of 0.04 μCi [γ-^33P]ATP (Amersham, UK) and unlabelled ATP at a final concentration of 1 μM and assay volume of 25 μl. After incubation for 20 minutes at room temperature, each reaction was terminated by the addition of 25 μl stop solution containing 5 mM EDTA, 50 μM ATP, 0.1% Triton X-100 and 0.25 mg streptavidin coated Scintillation Proximity Assay (SPA) beads (Amersham, UK). After 6 hours the radioactivity was determined in a liquid scintillation counter (1450 MicroBeta Trilux, Wallac). The inhibition curves were analysed by non-linear regression using GraphPad Prism, USA. The Km value of ATP for GSK3β, used to calculate the inhibition constants (Ki) of the various compounds, was 20 μM.
For orientation: Ki means a dissociation constant, usually derived from enzyme kinetics or from competition with a known ligand. As to `CCS(=O)(=O)c1ccc(Nc2ncc(F)c(-c3cnc(C)n3C3CCOCC3)n2)cn1` [Example 51, (6-Ethanesulfonyl-pyridin-3-yl)-{5-fluoro-4-[2-methyl-3-(tetrahydro-pyran-4-yl)-3H-imidazol-4-yl]-pyrimidin-2-yl}-amine], the Ki is 0.021 µM.
Then `Cc1ncc(-c2nc(Nc3ccc(S(=O)(=O)NCC(F)(F)F)nc3)ncc2F)n1C1CCOCC1` [Example 52], with 0.039 µM; and `Cc1ncc(-c2nc(Nc3ccc(S(=O)(=O)N(C)C)nc3)ncc2F)n1C1CCOCC1` [Example 53], with 0.02 µM; and `Cc1ncc(-c2nc(Nc3cnc(C(=O)N4CCCCC4)c(Cl)c3)ncc2F)n1C1CCOCC1` [Example 54, N-[5-Chloro-6-(piperidin-1-ylcarbonyl)pyridin-3-yl]-5-fluoro-4-[2-methyl-1-(tetrahydro-2H-pyran-4-yl)-1H-imidazol-5-yl]pyrimidin-2-amine hydrocholoride, hydrochloride], with 0.007 µM.
On to `Cc1ncc(-c2nc(Nc3cnc(C(=O)N4CCCCC4)c(Cl)c3)ncc2F)n1C` [Example 55, N-[5-Chloro-6-(piperidin-1-ylcarbonyl)pyridin-3-yl]-4-(1,2-dimethyl-1H-imidazol-5-yl)-5-fluoropyrimidin-2-amine hydrochloride], for which the Ki was 0.018 µM.
Then `Cn1c(-c2nc(Nc3cnc(C(=O)N4CCCCC4)c(Cl)c3)ncc2F)cnc1C(F)(F)F` [Example 56, N-[5-Chloro-6-(piperidin-1-ylcarbonyl)pyridin-3-yl]-5-fluoro-4-[1-methyl-2-(trifluoromethyl)-1H-imidazol-5-yl]pyrimidin-2-amine hydrochloride], with 0.055 µM; and `O=C(c1ncc(Nc2ncc(F)c(-c3cnc(C(F)(F)F)n3C3CCOCC3)n2)cc1Cl)N1CCCCC1` [Example 57, N-[5-Chloro-6-(piperidin-1-ylcarbonyl)pyridin-3-yl]-5-fluoro-4-[1-(tetrahydro-2H-pyran-4-yl)-2-(trifluoromethyl)-1H-imidazol-5-yl]pyrimidin-2-amine hydrochloride], with 0.019 µM.
Then `Cc1ncc(-c2nc(Nc3ccc(S(=O)(=O)N4CCN(C)CC4)nc3)ncc2F)n1C1CCOCC1` [Example 58, {5-Fluoro-4-[2-methyl-3-(tetrahydro-pyran-4-yl)-3H-imidazol-4-yl]-pyrimidin-2-yl}-[6-(4-methyl-piperazine-1-sulfonyl)-pyridin-3-yl]-amine], with 0.03 µM.
